Data: patent EP0286926A2, “Semi-synthetic rhodomycins, method for their preparation and their use as cytostatics” (BEHRINGWERKE Aktiengesellschaft, priority 1987, dated 1988)
In brackets after ≈: the same amount, converted by molar mass. Where two headings read alike, the source gives them in different places.

System: L1210 Leukämiezellen
Test: Colony formation of L1210 leukemia cells in soft agar
Type: cell-based, Maus
Details: for IC50: Mus musculus
Text: Die zytostatische Wirksamkeit der erfindungsgemäßen Verbindungen wurde anhand von L1210 Leukämiezellen der Maus getestet. Hierzu wurde die Koloniebildung von L1210 Leukämiezellen in Agarplatten herangezogen. Diese Methode dient zum Nachweis des Einflusses der Testsubstanzen auf das Wachstumsverhalten der Zellen nach Inkubation von 1 Stunde oder über mehrere Generationen. Bei einer Zelzykluszeit von 10-12 Stunden werden dabei in der Testzeit von 7 Tagen etwa 14 aufeinanderfolgende Generationen beobachtet. Die erfindungsgemäßen zytostatisch wirksamen Substanzen bewirken in diesem Test eine Reduktion der zu beobachtenden Koloniezahl gegenüber einer unbehandelten Kontrollprobe.
Einzelheiten des Testverfahrens ergeben sich aus der nachfolgenden Verfahrensweise zur Ermittlung der Koloniebildung.
Verfahrensweise zur Ermittlung der Koloniebildung von L1210 Leukämiezellen in Soft-Agar
500 Leukämiezellen pro Platte wurden mit unterschiedlichen Konzentrationen der Testsubstanz 1 Stunde bei 37°C inkubiert. Anschließend wurden die Zellen zweimal mit McCoy5A-Medium gewaschen und schließlich in Petrischalen nach Zugabe von 0,3 % Agar ausgegossen. Kontrollen wurden lediglich mit frischem Medium inkubiert. Anstelle der einstündigen Inkubation wurden in manchen Fällen unterschiedliche Konzentrationen und Testsubstanzen der oberen Agarschicht zugemischt, um so eine kontinuierliche Exposition der Zellen über die gesamte Inkubationszeit zu erreichen. Nach Erstarren des Agars wurden die Platten im Brutschrank 7 Tage bei 37°C inkubiert (5 Vol.-% CO₂, 94 % relative Luftfeuchtigkeit). Anschließend wurde die Zahl der entstandenen Kolonien mit einem Durchmesser von mehr als 60 µm gezählt. Die Ergebnisse wurden angegeben als Koloniezahl in behandelten Agarplatten in Prozent der unbehandelten Kontrolle. Aus der so erhaltenen Dosiswirkungskruve wurde die IC₅₀ als Maß für die Wirksamkeit der Substanz ermittelt. Die Ergebnisse für die hier beschriebenen Verbindungen im Vergleich zu Adriamycin sind in der nachfolgenden Tabelle 1 zusammengefaßt.

[1] = L1210, 168 h, continuous exposure: substance mixed into upper agar layer for the whole 7-day incubation at 37°C, colonies > 60 µm counted, percent of untreated control, read-out: Dauerinkubation IC50
[2] = L1210, 1 h incubation with substance at 37°C, cells washed twice, then plated in 0,3 % agar for 7 days, colonies > 60 µm counted, read-out: 1h-Inkubation IC50
[3] = L1210, 168 h, read-out: Dauerinkubation IC50
[4] = L1210, read-out: 1h-Inkubation IC50

Compound	IC50 [1] [µg/mL]	IC50 [2] [µg/mL]	zytostatische Wirksamkeit (statement in words, compared with Adriamycin)	IC50 [3] [µg/mL]	IC50 [4] [µg/mL]
CC[C@@]1(O)C[C@H](O[C@H]2C[C@H](N)[C@@H](O)[C@H](C)O2)c2c(O)c3c(c(O)c2[C@H]1O)C(=O)c1cccc(O)c1C3=O [Beispiel 15, 7-0-α-L-Acosaminyl-β-rhodomycinon]	0.004 (≈ 0.00776 µM)	0.02 (≈ 0.0388 µM)	vergleichbar	–	–
CC[C@@]1(O)C[C@H](O[C@H]2C[C@H](NCC#N)[C@H](O)[C@H](C)O2)c2c(O)c3c(c(O)c2[C@H]1O)C(=O)c1cccc(O)c1C3=O [Beispiel 17, 7-O-(3-N-Cyanomethyl-α-L-daunosaminyl)-β-rhodomycinon]	–	–	–	0.004 (≈ 0.00721 µM)	0.09 (≈ 0.162 µM)
CC[C@@]1(O)C[C@H](O[C@H]2C[C@H](NC(=O)C(F)(F)F)[C@@H](O)[C@H](C)O2)c2c(O)c3c(c(O)c2[C@H]1O)C(=O)c1cccc(O)c1C3=O [Beispiel 45, 7-O-(3-N-Trifluoracetyl-α-L-acosaminyl)-ß-rhodomycinon]	–	0.29 (≈ 0.474 µM)	–	–	–
CC[C@@]1(O)C[C@H](O[C@H]2C[C@H](N)C[C@H](C)O2)c2c(O)c3c(c(O)c2[C@H]1O)C(=O)c1cccc(O)c1C3=O [Beispiel 53, 7-O-(4-Desoxy-α-L-daunosaminyl)-β-rhodomycinon]	0.04 (≈ 0.0801 µM)	0.05 (≈ 0.1 µM)	–	–	–
CC[C@@]1(O)C[C@H](O[C@@H]2O[C@@H](C)[C@H](O)[C@@H](O)[C@H]2I)c2c(O)c3c(c(O)c2[C@H]1O)C(=O)c1cccc(O)c1C3=O [Beispiel 50, 7-O-(2,6-Didesoxy-2-iodo-α-L-mannopyranosyl)-β-rhodomycinon]	0.1 (≈ 0.156 µM)	–	–	–	–
CC[C@@]1(O)C[C@H](O[C@H]2C[C@H](N(C)C)[C@@H](O)[C@H](C)O2)c2c(O)c3c(c(O)c2[C@H]1O[C@H]1C[C@H](N(C)C)[C@@H](O)[C@H](C)O1)C(=O)c1cccc(O)c1C3=O [Beispiel 34]	–	–	–	0.026 (≈ 0.0371 µM)	0.09 (≈ 0.128 µM)
CC[C@@]1(O)C[C@H](O[C@H]2C[C@H](NC(=O)C(F)(F)F)[C@H](OC(=O)c3ccc([N+](=O)[O-])cc3)[C@H](C)O2)c2c(O)c3c(c(O)c2[C@H]1OC(=O)C(F)(F)F)C(=O)c1cccc(O)c1C3=O [Beispiel 18, 7-O-(4-O-Paranitrobenzoyl-3-N-trifluoracetyl-α-L-daunosaminyl)-10-O-trifluoracetyl-β-rhodomycinon]	0.13 (≈ 0.152 µM)	> 1	–	–	–
CC[C@@]1(O)C[C@H](O)c2c(O)c3c(c(O)c2[C@H]1O[C@H]1C[C@H](NC(=O)C(F)(F)F)[C@@H](OC(=O)c2ccc([N+](=O)[O-])cc2)[C@H](C)O1)C(=O)c1cccc(O)c1C3=O [Beispiel 8, 10-0-(4-0-Paranitrobenzoyl-3-N-trifluor-acetyl-α-L-acosaminyl)-β-rhodomycinon]	> 1	> 1	–	–	–
CC[C@@]1(O)C[C@H](O[C@H]2C[C@H](NCC#N)[C@H](O)[C@H](C)O2)c2c(O)c3c(c(O)c2[C@H]1O[C@H]1C[C@H](NCC#N)[C@H](O)[C@H](C)O1)C(=O)c1cccc(O)c1C3=O [Beispiel 30, 7,10-O-Di-(3-N-Cyanomethyl-α-L-daunosaminyl)-β-rhodomycinon]	–	–	–	0.5 (≈ 0.692 µM)	> 1
CC[C@@]1(O)C[C@H](O)c2c(O)c3c(c(O)c2[C@H]1O[C@H]1C[C@H](NC(=O)C(F)(F)F)[C@H](OC(=O)c2ccc([N+](=O)[O-])cc2)[C@H](C)O1)C(=O)c1cccc(O)c1C3=O [Beispiel 9, 10-0-(4-0-Paranitrobenzoyl-3-N-trifluoracetyl-α-L-daunosaminyl)-β-rhodomycinon]	0.6 (≈ 0.789 µM)	> 10	–	–	–
CC[C@@]1(O)C[C@H](O[C@H]2C[C@H](NC(=O)C(F)(F)F)[C@@H](OC(=O)c3ccc([N+](=O)[O-])cc3)[C@H](C)O2)c2c(O)c3c(c(O)c2[C@H]1O[C@H]1C[C@H](NC(=O)C(F)(F)F)[C@H](OC(=O)c2ccc([N+](=O)[O-])cc2)[C@H](C)O1)C(=O)c1cccc(O)c1C3=O [Beispiel 35, 7-0-(4-0-Paranitrobenzoyl-3-N-trifluoracetyl-α-L-acosaminyl)-10-0-(4-0-paranitrobenzoyl-3-N-trifluoracetyl-α-L-daunosaminyl)-β-rhodomycinon]	–	–	–	> 1	> 1
